Results from patent US9885044B2, “Polynucleotides and methods for inhibiting cancer cells” (Chang Gung Memorial Hospital, Linkou, priority 2015, dated 2018).

Tests used:
Type in all cases: cell-based
Puf-A = experiment: Effect of small molecules blocking downstream effectors of Kras pathway on Puf-A expression (Western blot); details: H460 and HCT116 cancer cells
Description: FIG. 3C is a series of bar graphs showing Puf-A promoter activity in Kras^G12D or c-Myc transfected cells, determined by dual-luciferase reporter assay. FIG. 3D illustrates the binding of c-Myc protein to exon 1 of Puf-A locus in H1299 and HCT116 cells. […] FIG. 3F is an assembly of the Western blot images illustrating the effect of Raf inhibitor (Raf (i)), MEK1 inhibitor (PD98059) and MEK1/2 inhibitor (U0126) on the expression of Puf-A, phosphorylated ERK1/2, total ERK1/2 and β-actin in H460 (Kras ^Q61H) and HCT116 (Kras^G13D) cancer cells.
The effect of various small molecules (such as Raf(i), PD98059 and UO126), which block the downstream effectors of Kras pathway (such as Rafs, MEK1 and MEK2), was assessed in H460 and HCT116 cancer cells.

[1] = system: MB231 breast cancer cells; experiment: Cell proliferation assay, xCELLigenece RTCA system, MB231; details: 25 and 50 uM
Procedure: (§1) FIG. 9A is an assembly of Western blot images illustrating 25 and 50 uM of resveratrol reduced the expression of Puf-a in A549 lung cancer cells, HCT116 colon cancer cells, MB231 breast cancer cells and T98 glioblatoma cells. FIG. 9B is an assembly of graphs illustrating 25 and 50 uM of resveratrol was effective in reducing the proliferation of A549 lung cancer cells, HCT116 colon cancer cells, MB231 breast cancer cells and T98 glioblatoma cells.
(§2) An in vitro evaluation of the effect of Resveratrol on the expression level of Puf-a protein and cell proliferation in various cancer cells was examined. The following cancer cells were treated with 0, 25 or 50 uM of Resveratrol (commercially available from Sigma, USA): A549 lung cancer cells (p53 proficient), HCT116 colon cancer cells (p53 proficient), MB231 breast cancer cells (p53 deficient) and T98 glioblatoma cells (p53 deficient). The expression of Puf-A protein in these cancer cells was analyzed by western blot and the cell proliferation was measured with a cell proliferation assay performed with xCELLigenece RTCA system (ACEA Biosciences Inc, USA). FIG. 9A is an assembly of Western blot images illustrating 25 and 50 uM of resveratrol reduced the expression of Puf-A in A549 lung cancer cells, HCT116 colon cancer cells, MB231 breast cancer cells and T98 glioblatoma cells. […]

A549 lung cancer cells = experiment: Cell proliferation assay, xCELLigenece RTCA system, A549; details: 25 and 50 uM
Procedure: as §1, §2

T98 glioblatoma cells = experiment: Cell proliferation assay, xCELLigenece RTCA system, T98; details: 25 and 50 uM
Procedure: as §1, §2

[2] = system: HCT116 colon cancer cells; experiment: Cell proliferation assay, xCELLigenece RTCA system, HCT116; details: 25 and 50 uM
Procedure: as §1, §2

Puf-A protein = experiment: Effect of resveratrol on Puf-A protein expression (Western blot); details: 25 and 50 uM
Procedure: as §1
An in vitro evaluation of the effect of Resveratrol on the expression level of Puf-a protein and cell proliferation in various cancer cells was examined. The following cancer cells were treated with 0, 25 or 50 uM of Resveratrol (commercially available from Sigma, USA): A549 lung cancer cells (p53 proficient), HCT116 colon cancer cells (p53 proficient), MB231 breast cancer cells (p53 deficient) and T98 glioblatoma cells (p53 deficient). The expression of Puf-A protein in these cancer cells was analyzed by western blot and the cell proliferation was measured with a cell proliferation assay performed with xCELLigenece RTCA system (ACEA Biosciences Inc, USA). FIG. 9A is an assembly of Western blot images illustrating 25 and 50 uM of resveratrol reduced the expression of Puf-A in A549 lung cancer cells, HCT116 colon cancer cells, MB231 breast cancer cells and T98 glioblatoma cells. FIG. 9B is an assembly of graphs illustrating 25 and 50 uM of resveratrol reduced the proliferation of A549 lung cancer cells, HCT116 colon cancer cells, MB231 breast cancer cells and T98 glioblatoma cells compare to the control group (no resveratrol).

COc1cccc(-c2cc(=O)c3ccccc3o2)c1N [PD98059]
reduced: expression levels of Puf-A (Puf-A)

Oc1ccc(C=Cc2cc(O)cc(O)c2)cc1 [resveratrol]
reduced: proliferation compared to control group (no resveratrol) [1] | proliferation compared to control group (no resveratrol) (A549 lung cancer cells) | proliferation compared to control group (no resveratrol) (T98 glioblatoma cells) | proliferation compared to control group (no resveratrol) [2] | expression of Puf-A (Puf-A protein; A549 lung cancer cells (p53 proficient)) | expression of Puf-A (Puf-A protein; HCT116 colon cancer cells (p53 proficient)) | expression of Puf-A (Puf-A protein; MB231 breast cancer cells (p53 deficient)) | expression of Puf-A (Puf-A protein; T98 glioblatoma cells (p53 deficient))
